Experiment [1] concerns the target GDP-bound HRAS wild-type protein (Homo sapiens, UniProt P01112). The experiment in a line: Binding to HRAS by surface plasmon resonance (SPR), Single Cycle Kinetics. The following applies: KD ratio, GDP-bound HRAS wild-type vs GDP-bound KRAS wild-type, SPR. A general note: Surface plasmon resonance follows binding to a sensor surface in real time, without labels.
In experiment [2] the target is GDP-bound NRAS wild-type protein (Homo sapiens, UniProt P01111). The experiment is described as follows: Binding to NRAS by surface plasmon resonance (SPR), Single Cycle Kinetics. To be noted: KD ratio, GDP-bound NRAS wild-type vs GDP-bound KRAS wild-type, SPR.
GDP-bound NRAS wild-type protein, sequence (P01111 whole entry): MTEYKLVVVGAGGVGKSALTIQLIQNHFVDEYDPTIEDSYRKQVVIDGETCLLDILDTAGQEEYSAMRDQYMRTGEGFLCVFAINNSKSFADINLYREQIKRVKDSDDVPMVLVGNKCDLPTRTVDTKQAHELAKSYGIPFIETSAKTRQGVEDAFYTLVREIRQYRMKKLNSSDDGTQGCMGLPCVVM

GDP-bound HRAS wild-type protein, sequence (P01112 whole entry): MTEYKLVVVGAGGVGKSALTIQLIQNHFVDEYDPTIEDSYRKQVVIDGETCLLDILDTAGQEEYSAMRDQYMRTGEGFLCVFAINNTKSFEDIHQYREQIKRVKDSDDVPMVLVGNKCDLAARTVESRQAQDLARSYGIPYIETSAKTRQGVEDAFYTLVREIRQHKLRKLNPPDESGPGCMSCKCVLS

For the molecule `CCO[C@@H]1C[C@H]2C(=O)NC3(CCC3)C(=O)N(C)[C@@H](C3CCCC3)C(=O)N(C)[C@H](C(=O)N3CCOCC3)CC(=O)N(C)[C@@H](CC)C(=O)N[C@@H]([C@@H](C)CC)C(=O)N(C)CC(=O)N(C)[C@H]3C/C=C\CCN(C3=O)[C@@H](Cc3ccc(C(F)(F)F)cc3)C(=O)N(C)CC(=O)N[C@@H](CCc3cc(F)c(C(F)(F)F)c(F)c3)C(=O)N2C1` [PP1092], the “HRAS/KRAS (ratio of KD value with respect to HRAS to KD value with respect to KRAS)” value in experiment [1] is “A (a compound having 10 or more and less than 20 is denoted as A)”. Moreover, in experiment [2], the “NRAS/KRAS (ratio of KD value with respect to NRAS to KD value with respect to KRAS)” value is “A (a compound having 10 or more and less than 20 is denoted as A)”.
`CCO[C@@H]1C[C@H]2C(=O)NC3(CCC3)C(=O)N(C)[C@@H](C3CCCC3)C(=O)N(C)[C@H](C(=O)N3C4CCC3COC4)CC(=O)N(C)[C@@H](CC)C(=O)N[C@@H]([C@@H](C)CC)C(=O)N(C)CC(=O)N(C)[C@H]3C/C=C\CCN(C3=O)[C@@H](Cc3ccc(C(F)(F)F)cc3)C(=O)N(C)CC(=O)N[C@@H](CCc3cc(F)c(C(F)(F)F)c(F)c3)C(=O)N2C1` [PP1093]: the “HRAS/KRAS (ratio of KD value with respect to HRAS to KD value with respect to KRAS)” value in experiment [1] was “A (a compound having 10 or more and less than 20 is denoted as A)”. The “NRAS/KRAS (ratio of KD value with respect to NRAS to KD value with respect to KRAS)” value in experiment [2] was “AA (a compound having 20 or more is denoted as AA)”.
As for `CCO[C@@H]1C[C@H]2C(=O)NC3(CCC3)C(=O)N(C)[C@@H](C3CCCC3)C(=O)N[C@H](C(=O)N(C)C)CC(=O)N(C)[C@@H](CC)C(=O)N[C@@H]([C@@H](C)CC)C(=O)N(C)CC(=O)N(C)[C@H]3C/C=C\CCN(C3=O)[C@@H](Cc3ccc(C(F)(F)F)cc3)C(=O)N(C)CC(=O)N[C@@H](CCc3cc(F)c(C(F)(F)F)c(F)c3)C(=O)N2C1` [PP1094], in experiment [1], the “HRAS/KRAS (ratio of KD value with respect to HRAS to KD value with respect to KRAS)” value was “B (a compound having 3 or more and less than 10 is denoted as B)”. The “NRAS/KRAS (ratio of KD value with respect to NRAS to KD value with respect to KRAS)” value in experiment [2] was “A (a compound having 10 or more and less than 20 is denoted as A)”.
With `CCO[C@@H]1C[C@H]2C(=O)NC3(CCC3)C(=O)N(C)[C@@H](C3CCCC3)C(=O)N(C)[C@H](C)CC(=O)N(C)[C@@H](CC)C(=O)N[C@@H]([C@@H](C)CC)C(=O)N(C)CC(=O)N(C)[C@H]3C/C=C\CCN(C3=O)[C@@H](Cc3ccc(C(F)(F)F)cc3)C(=O)N(C)CC(=O)N[C@@H](CCc3cc(F)c(C(F)(F)F)c(F)c3)C(=O)N2C1` [PP1095], the “HRAS/KRAS (ratio of KD value with respect to HRAS to KD value with respect to KRAS)” value in experiment [1] was “B (a compound having 3 or more and less than 10 is denoted as B)”. Also, in experiment [2], the “NRAS/KRAS (ratio of KD value with respect to NRAS to KD value with respect to KRAS)” value was “B (a compound having 3 or more and less than 10 is denoted as B)”.
In the case of `CCO[C@@H]1C[C@H]2C(=O)NC3(CCCC3)C(=O)N(C)[C@@H](C3CCCC3)C(=O)N(C)[C@H](C)CC(=O)N(C)[C@@H](CC(C)C)C(=O)N[C@@H]([C@@H](C)CC)C(=O)N(C)CC(=O)N(C)[C@H]3C/C=C\CCN(C3=O)[C@@H](Cc3ccc(C(F)(F)F)cc3)C(=O)N(C)CC(=O)N[C@@H](CCc3cc(F)c(C(F)(F)F)c(F)c3)C(=O)N2C1` [PP1096], the “HRAS/KRAS (ratio of KD value with respect to HRAS to KD value with respect to KRAS)” value in experiment [1] is “B (a compound having 3 or more and less than 10 is denoted as B)”. Also, the “NRAS/KRAS (ratio of KD value with respect to NRAS to KD value with respect to KRAS)” value in experiment [2] is “B (a compound having 3 or more and less than 10 is denoted as B)”.
As to `CCO[C@@H]1C[C@H]2C(=O)NC3(CCC3)C(=O)N(C)[C@@H](C3CCCC3)C(=O)N3CCC[C@@H]3CC(=O)N(C)[C@@H](CC)C(=O)N[C@@H]([C@@H](C)CC)C(=O)N(C)CC(=O)N(C)[C@H]3C/C=C\CCN(C3=O)[C@@H](Cc3ccc(C(F)(F)F)cc3)C(=O)N(C)CC(=O)N[C@@H](CCc3cc(F)c(C(F)(F)F)c(F)c3)C(=O)N2C1` [PP1097], the “HRAS/KRAS (ratio of KD value with respect to HRAS to KD value with respect to KRAS)” value in experiment [1] was “B (a compound having 3 or more and less than 10 is denoted as B)”. For the same molecule, the “NRAS/KRAS (ratio of KD value with respect to NRAS to KD value with respect to KRAS)” value in experiment [2] was “B (a compound having 3 or more and less than 10 is denoted as B)”.
As for `CCO[C@@H]1C[C@H]2C(=O)NC3(CCC3)C(=O)N(C)[C@@H](C3CCCC3)C(=O)N[C@H](C)CC(=O)N(C)[C@@H](CC)C(=O)N[C@@H]([C@@H](C)CC)C(=O)N(C)CC(=O)N(C)[C@H]3C/C=C\CCN(C3=O)[C@@H](Cc3ccc(C(F)(F)F)cc3)C(=O)N(C)CC(=O)N[C@@H](CCc3cc(F)c(C(F)(F)F)c(F)c3)C(=O)N2C1` [PP1098], the “HRAS/KRAS (ratio of KD value with respect to HRAS to KD value with respect to KRAS)” value in experiment [1] is “B (a compound having 3 or more and less than 10 is denoted as B)”. Also, the “NRAS/KRAS (ratio of KD value with respect to NRAS to KD value with respect to KRAS)” value in experiment [2] was “B (a compound having 3 or more and less than 10 is denoted as B)”.
Consider `CCO[C@@H]1C[C@H]2C(=O)NC3(CCC3)C(=O)N(C)[C@@H](C3CCCC3)C(=O)N(C)[C@H](C)CC(=O)N(C)[C@@H](CC(C)C)C(=O)N[C@@H]([C@@H](C)CC)C(=O)N(C)CC(=O)N(C)[C@H]3C/C=C\CCN(C3=O)[C@@H](Cc3ccc(C(F)(F)F)cc3)C(=O)N(C)CC(=O)N[C@@H](CCc3cc(F)c(C(F)(F)F)c(F)c3)C(=O)N2C1` [PP1100], for which the “HRAS/KRAS (ratio of KD value with respect to HRAS to KD value with respect to KRAS)” value in experiment [1] was “B (a compound having 3 or more and less than 10 is denoted as B)”. In addition, in experiment [2], the “NRAS/KRAS (ratio of KD value with respect to NRAS to KD value with respect to KRAS)” value was “B (a compound having 3 or more and less than 10 is denoted as B)”.
`CC[C@H](C)[C@@H]1NC(=O)[C@H](CC)N(C)C(=O)C[C@@H](C)N(C)C(=O)[C@H](C2CCCC2)N(C)C(=O)C2(CCCC2)NC(=O)[C@@H]2CCCN2C(=O)[C@H](CCc2cc(F)c(C(F)(F)F)c(F)c2)NC(=O)CN(C)C(=O)[C@H](Cc2ccc(C(F)(F)F)cc2)N2CC/C=C\C[C@@H](C2=O)N(C)C(=O)CN(C)C1=O` [PP1101]: the “HRAS/KRAS (ratio of KD value with respect to HRAS to KD value with respect to KRAS)” value in experiment [1] is “B (a compound having 3 or more and less than 10 is denoted as B)”. Besides, the “NRAS/KRAS (ratio of KD value with respect to NRAS to KD value with respect to KRAS)” value in experiment [2] was “B (a compound having 3 or more and less than 10 is denoted as B)”.
On to `CC[C@H](C)[C@@H]1NC(=O)[C@H](CC(C)C)N(C)C(=O)C[C@@H](C)N(C)C(=O)[C@H](C2CCCC2)N(C)C(=O)C2(CCCC2)NC(=O)[C@@H]2CCCN2C(=O)[C@H](CCc2cc(F)c(C(F)(F)F)c(F)c2)NC(=O)CN(C)C(=O)[C@H](Cc2ccc(C(F)(F)F)cc2)N2CC/C=C\C[C@@H](C2=O)N(C)C(=O)CN(C)C1=O` [PP1102], for which the “HRAS/KRAS (ratio of KD value with respect to HRAS to KD value with respect to KRAS)” value in experiment [1] is “A (a compound having 10 or more and less than 20 is denoted as A)”. Further, in experiment [2], the “NRAS/KRAS (ratio of KD value with respect to NRAS to KD value with respect to KRAS)” value was “B (a compound having 3 or more and less than 10 is denoted as B)”.
Take `CC[C@H](C)[C@@H]1NC(=O)[C@H](C)N(C)C(=O)C[C@@H](C(=O)N(C)C)N(C)C(=O)[C@H](C2CCCC2)N(C)C(=O)C2(CCC2)NC(=O)[C@@H]2CC(F)(F)CN2C(=O)[C@H](CCc2cc(F)c(C(F)(F)F)c(F)c2)NC(=O)CN(C)C(=O)[C@H](Cc2ccc(C(F)(F)F)cc2)N2CC/C=C\C[C@@H](C2=O)N(C)C(=O)CN(C)C1=O` [PP1103]: the “HRAS/KRAS (ratio of KD value with respect to HRAS to KD value with respect to KRAS)” value in experiment [1] is “B (a compound having 3 or more and less than 10 is denoted as B)”. Also, in experiment [2], the “NRAS/KRAS (ratio of KD value with respect to NRAS to KD value with respect to KRAS)” value is “A (a compound having 10 or more and less than 20 is denoted as A)”.
For the molecule `CCO[C@@H]1C[C@H]2C(=O)NC3(CCCC3)C(=O)N(C)[C@@H](C3CCCC3)C(=O)N(C)[C@H](C(=O)N(C)C)CC(=O)N(C)[C@@H](C)C(=O)N[C@@H]([C@@H](C)CC)C(=O)N(C)CC(=O)N(C)[C@H]3C/C=C\CCN(C3=O)[C@@H](Cc3ccc(C(F)(F)F)cc3)C(=O)N(C)CC(=O)N[C@@H](CCc3cc(F)c(C(F)(F)F)c(F)c3)C(=O)N2C1` [PP1104], the “HRAS/KRAS (ratio of KD value with respect to HRAS to KD value with respect to KRAS)” value in experiment [1] is “A (a compound having 10 or more and less than 20 is denoted as A)”. Further, the “NRAS/KRAS (ratio of KD value with respect to NRAS to KD value with respect to KRAS)” value in experiment [2] was “A (a compound having 10 or more and less than 20 is denoted as A)”.
For the molecule `CCO[C@@H]1C[C@H]2C(=O)NC3(CCCC3)C(=O)N(C)[C@@H](C3CCCC3)C(=O)N(C)[C@H](C(=O)N(C)C)CC(=O)N(C)[C@@H](CC(C)C)C(=O)N[C@@H]([C@@H](C)CC)C(=O)N(C)CC(=O)N(C)[C@H]3C/C=C\CCN(C3=O)[C@@H](Cc3ccc(C(F)(F)F)cc3)C(=O)N(C)CC(=O)N[C@@H](CCc3cc(F)c(C(F)(F)F)c(F)c3)C(=O)N2C1` [PP1105], the “HRAS/KRAS (ratio of KD value with respect to HRAS to KD value with respect to KRAS)” value in experiment [1] is “A (a compound having 10 or more and less than 20 is denoted as A)”. In addition, the “NRAS/KRAS (ratio of KD value with respect to NRAS to KD value with respect to KRAS)” value in experiment [2] was “A (a compound having 10 or more and less than 20 is denoted as A)”.
With `CC[C@H](C)[C@@H]1NC(=O)[C@H](CC)N(C)C(=O)C[C@@H](C(=O)N(C)C)N(CC)C(=O)[C@H](C2CCCC2)N(C)C(=O)C2(CCC2)NC(=O)[C@@H]2CCCN2C(=O)[C@H](CCc2cc(F)c(C(F)(F)F)c(F)c2)NC(=O)CN(C)C(=O)[C@H](Cc2ccc(C(F)(F)F)cc2)N2CC/C=C\C[C@@H](C2=O)N(C)C(=O)CN(C)C1=O` [PP1106], the “HRAS/KRAS (ratio of KD value with respect to HRAS to KD value with respect to KRAS)” value in experiment [1] was “A (a compound having 10 or more and less than 20 is denoted as A)”. The “NRAS/KRAS (ratio of KD value with respect to NRAS to KD value with respect to KRAS)” value in experiment [2] is “A (a compound having 10 or more and less than 20 is denoted as A)”.
As to `CCO[C@@H]1C[C@H]2C(=O)NC3(CCC3)C(=O)N(C)[C@@H](C3CCCC3)C(=O)N(C)[C@H](C(=O)N(C)C)CC(=O)N(C)[C@@H](CC(C)C)C(=O)N[C@@H]([C@@H](C)CC)C(=O)N(C)CC(=O)N(C)[C@H]3C/C=C\CCN(C3=O)[C@@H](Cc3ccc(C(F)(F)F)cc3)C(=O)N(C)CC(=O)N[C@@H](CCc3cc(F)c(C(F)(F)F)c(F)c3)C(=O)N2C1` [PP1107], the “HRAS/KRAS (ratio of KD value with respect to HRAS to KD value with respect to KRAS)” value in experiment [1] is “A (a compound having 10 or more and less than 20 is denoted as A)”. The “NRAS/KRAS (ratio of KD value with respect to NRAS to KD value with respect to KRAS)” value in experiment [2] was “A (a compound having 10 or more and less than 20 is denoted as A)”.

These data come from patent US20250230193A1, “CYCLIC COMPOUND HAVING SELECTIVE KRAS INHIBITORY EFFECT ON HRAS AND NRAS” (CHUGAI SEIYAKU KABUSHIKI KAISHA, priority 2022, published 2025).
